Measured values from patent publication US11400079B2, “Antibacterial monobactams” (University of Notre Dame du Lac, priority 2017, dated 2022).
Counter-ions that a name gives are not always drawn. Like-named read-outs stand apart in the source and are kept apart here.

Tests used:
[1] = tested on: panel of Gram-negative and Gram-positive bacteria; experiment: Antibacterial activity against a panel of bacteria; format: cell-based
Method: (§1) General Methods. All solvents and reagents were obtained from commercial sources and used without further purification unless otherwise stated. General methods of purification of compounds involved the use column chromatography with silica gel (230-400 mesh) purchased from Silicycle, Quebec City, Canada. The reactions were monitored by TLC on precoated Merck 60 F254 silica gel plates and visualized using UV light (254 nm).
(§2) Antibacterial assays were performed using iron depleted media as described previously (J. Med. Chem. 2017, 60, 4577).

[2] = tested on: A. baumannii ATCC 17961; experiment: MIC antibacterial assay (iron depleted media); format: cell-based; details: Acinetobacter baumannii, ATCC17961; A. baumannii ATCC 17961; MH2 broth with 160 μM bipyridyl added; read-out: MIC
Method: as §1, §2

[3] = tested on: A. baumannii ATCC BAA 1797; experiment: MIC antibacterial assay (iron depleted media); format: cell-based; details: Acinetobacter baumannii, BAA1797; A. baumannii ATCC BAA 1797; MH2 broth with 160 μM bipyridyl added; read-out: MIC
Method: as §1, §2

[4] = tested on: A. baumannii ATCC17978-PNT-165; experiment: MIC antibacterial assay (iron depleted media); format: cell-based; details: Acinetobacter baumannii
Method: as §1, §2

[5] = tested on: Citrobacter freuendii ATCC 29063; experiment: MIC antibacterial assay (iron depleted media); format: cell-based; details: ATCC29063; Citrobacter freuendii ATCC 29063; MH2 broth with 160 μM bipyridyl added; read-out: MIC
Method: as §1, §2

[6] = tested on: E. coli DCO; experiment: MIC antibacterial assay (iron depleted media); format: cell-based; details: Escherichia coli; E. coli DCO; MH2 broth with 160 μM bipyridyl added; read-out: MIC
Method: as §1, §2

[7] = tested on: Enterobacter aerogenes X816; experiment: MIC antibacterial assay (iron depleted media); format: cell-based; details: Klebsiella aerogenes; Enterobacter aerogenes X816; MH2 broth with 160 μM bipyridyl added; read-out: MIC
Method: as §1, §2

[8] = tested on: P. aeruginosa 01; experiment: MIC antibacterial assay (iron depleted media); format: cell-based; details: Pseudomonas aeruginosa; P. aeruginosa 01; MH2 broth with 160 μM bipyridyl added; read-out: MIC
Method: as §1, §2

[9] = tested on: P. aeruginosa ARC 3502; experiment: MIC antibacterial assay (iron depleted media); format: cell-based; details: Pseudomonas aeruginosa, read-out: MIC
Method: as §1, §2

[10] = tested on: P. aeruginosa ARC 3506; experiment: MIC antibacterial assay (iron depleted media); format: cell-based; details: Pseudomonas aeruginosa, ARC3506, P. aeruginosa ARC 3506, read-out: MIC
Method: as §1, §2

[11] = tested on: P. aeruginosa ISR-14-003; experiment: MIC antibacterial assay (iron depleted media); format: cell-based; details: read-out: MIC
Method: as §1, §2

[12] = tested on: P. aeruginosa ISR-14-004; experiment: MIC antibacterial assay (iron depleted media); format: cell-based; details: read-out: MIC
Method: as §1, §2

[13] = tested on: P. aeruginosa KW799/wt; experiment: MIC antibacterial assay (iron depleted media); format: cell-based; details: Pseudomonas aeruginosa; P. aeruginosa KW799/wt; MH2 broth with 160 μM bipyridyl added; read-out: MIC
Method: as §1, §2

[14] = tested on: Proteus mirabilis X235; experiment: MIC antibacterial assay (iron depleted media); format: cell-based; details: Proteus mirabilis X235; MH2 broth with 160 μM bipyridyl added; read-out: MIC
Method: as §1, §2

[15] = tested on: S. aureus SG 511; experiment: MIC antibacterial assay (iron depleted media); format: cell-based; details: Staphylococcus aureus, SG511; S. aureus SG 511; MH2 broth with 160 μM bipyridyl added; read-out: MIC
Method: as §1, §2

[16] = tested on: Salmonella typhimurium ATCC13311; experiment: MIC antibacterial assay (iron depleted media); format: cell-based; details: Salmonella enterica; Salmonella typhimurium ATCC13311; MH2 broth with 160 μM bipyridyl added; read-out: MIC
Method: as §1, §2

[17] = tested on: A.baumannii ISR14-005; experiment: MIC antibacterial assay (iron depleted media); format: cell-based, Acinetobacter baumannii; details: read-out: MIC
Method: as §1, §2

[18] = tested on: Gram-negative bacteria; experiment: Antibacterial activity against tested Gram-negative strains (summary in words); format: cell-based; details: tested strains of Gram-negative bacteria
Method: as §1, §2

[19] = tested on: B. dolosa AU0018; experiment: MIC antibacterial assay (iron depleted media); format: cell-based; details: Burkholderia dolosa; B. dolosa AU0018; MH2 broth with 160 μM bipyridyl added; read-out: MIC
Method: as §1, §2

[20] = tested on: A. baumannii ARC 5079; experiment: MIC antibacterial assay (iron depleted media); format: cell-based, Acinetobacter baumannii; details: A. baumannii ARC 5079
Method: as §1, §2

[21] = tested on: A. baumannii ATCC 17978-PNT-320; experiment: MIC antibacterial assay (iron depleted media); format: cell-based, Acinetobacter baumannii
Method: as §1, §2

[22] = tested on: A. baumannii ATCC BAA 1793; experiment: MIC antibacterial assay (iron depleted media); format: cell-based, Acinetobacter baumannii; details: A. baumannii ATCC BAA 1793
Method: as §1, §2

[23] = tested on: A. baumannii ATCC BAA 1800; experiment: MIC antibacterial assay (iron depleted media); format: cell-based, Acinetobacter baumannii; details: tazobactam alone @ 10 μg/ml
Method: as §1, §2

[24] = compound alone, MH2 broth with 160 μM bipyridyl added

`COC(=O)CSCC1C(NC(=O)Cc2ccccc2)C(=O)N1S(=O)(=O)[O-].[K+]` (stereo not drawn) [Compound 24, Potassium 2-(((2-methoxy-2-oxoethyl)thio)methyl)-4-oxo-3-(2-phenylacetamido) azetidine-1-sulfonate] was tested, and the “antibacterial activity (in words)” value ([1]; panel of Gram-negative and Gram-positive bacteria) was “not active” and the “antibacterial activity (MIC)” value ([1]; tested strains) was > 50 µM.

For `CO/N=C(\C(=O)NC1C(=O)N(S(=O)(=O)O)[C@H]1CSCCN)c1cnc(N)s1` (stereo partly drawn) [Compound 35, (E)-3-(2-(2-aminothiazol-5-yl)-2-(methoxyimino)acetamido)-2-(((2-ammonioethyl)thio)methyl)-4-oxoazetidine-1-sulfonate, potassium salt], the MIC [2] was 50 µM, the MIC [3] was > 50 µM and the MIC [4] was 50 µM. It also gave an MIC [5] of 12.5 µM, an MIC [6] of 25 µM and an MIC [7] of 0.2 µM. The MIC [8] was > 50 µM, the MIC ([9]; ARC3502, compound alone, MH2 broth with 160 μM bipyridyl added) was > 50 µM and the MIC [10, 24] was > 50 µM. For the same molecule, the MIC ([11]; Pseudomonas aeruginosa, ISR14003, P. aeruginosa ISR-14-003 (clinical isolate), compound alone, MH2 broth with 160 μM bipyridyl added) was > 50 µM, the MIC ([12]; Pseudomonas aeruginosa, ISR14004, P. aeruginosa ISR-14-004 (clinical isolate), compound alone, MH2 broth with 160 μM bipyridyl added) was > 50 µM and the MIC [13] was > 50 µM. For the same molecule, the MIC [14] was 12.5 µM, the MIC [15] was > 50 µM and the MIC [16] was 12.5 µM. For the same molecule, the MIC ([17]; Acinetobacter baumannii, ISR14005, A. baumannii ISR14-005 (clinical isolate), compound alone, MH2 broth with 160 μM bipyridyl added) was > 50 µM and the “antibacterial activity (in words)” value [18] was “moderately active”.

For `C[C@]1(Cn2ccnn2)[C@H](C(=O)O)N2C(=O)C[C@H]2S1(=O)=O` [Tazobactam, tazobactam, reference compound], the MIC [19] was > 50 µM, the MIC ([9]; ARC3502, tazobactam alone) was > 10 µg/mL and the MIC ([10]; tazobactam alone) was > 10 µg/mL. The MIC ([11]; Pseudomonas aeruginosa, ISR14003, P. aeruginosa ISR-14-003, tazobactam alone) was > 20 µg/mL, the MIC ([12]; Pseudomonas aeruginosa, ISR14004, P. aeruginosa ISR-14-004, tazobactam alone) was > 20 µg/mL and the MIC ([20]; Acinetobacter baumannii, ARC5079, tazobactam alone, read-out: MIC) was > 10 µg/mL. The MIC ([21]; Acinetobacter baumannii, ATCC17978) was < 10 µg/mL, the inhibition ([22]; tazobactam alone @ 10 μg/ml) was “very slight” and the inhibition [23] was “very slight”. For the same molecule, the MIC ([17]; Acinetobacter baumannii, ISR14005, A. baumannii ISR14-005, tazobactam alone) was > 20 µg/mL.

In the case of Polymixin B [reference compound], the MIC ([11]; P. aeruginosa ISR-14-003 (clinical isolate), compound alone, MH2 broth with 160 μM bipyridyl added) is reported as 0.1 µM, the MIC ([12]; P. aeruginosa ISR-14-004 (clinical isolate), compound alone, MH2 broth with 160 μM bipyridyl added) is reported as 0.05 µM and the MIC [20, 24] is reported as <0.025 to 0.1 µM. For the same molecule, the MIC ([21]; A. baumannii ATCC 17978-PNT-320 (cephalosporinase producing organism), MH2 broth with 160 μM bipyridyl added) was <0.025 µM, the MIC ([22]; MH2 broth with 160 μM bipyridyl added) was <0.025 µM and the MIC ([17]; A. baumannii ISR14-005 (clinical isolate), compound alone, MH2 broth with 160 μM bipyridyl added) was <0.025 µM. For the same molecule, the “antibacterial activity (in words)” value [18] was “excellent activity”.
